Experimental data: US10568884B2, “Compounds and compositions as protein kinase inhibitors” (Array BioPharma, Inc., priority 2009, dated 2020)
pIC50: −log10 of the molar value. Read-outs that look alike come from different tables or passages of the source.

Experiments:
[1] = system: A375 melanoma cell line (B-Raf V600E); assay: A375 Cellular Proliferation Assay (A375 CP); type: cell-based; conditions: Homo sapiens
Method: A375-luc cells engineered to express luciferase are plated to 384-well white clear bottom plates as 1,500 cells/50 μl/well in DMEM containing 10% FBS. Compounds of the invention dissolved in 100% DMSO at appropriate concentrations are transferred to the cells by a robotic Pin Tool (100 nl). The cells are incubated for 2 days at […], then 25 μl of BrightGlo™ is added to each well and the plates are read by luminescence.

[2] = Liver Microsomal Clearance Assay (human); type: in vitro ADME; conditions: extraction ratio, human liver microsomes, 1 μM compound
Method: (§1) The in vitro microsomal clearance assay is designed to assess potential risks associated with hepatic metabolic stability of compounds. The test compound (1 μM) was incubated with liver microsomes (0.5 mg/mL) from different species (mouse, rat, monkey, dog and human) and NADPH (1 mM) in 100 mM potassium phosphate buffer at 37° C. At specific reaction time points (0, 5, 10 and 30 minutes), reaction aliquots were removed and reactions were terminated by addition of ice cold acetonitrile containing mass spectrometry internal standard. The samples were centrifuged and the supernatants were analyzed by LC-MS/MS. In vitro metabolic half-life (t1/2, min) and intrinsic clearance (CLint, μL/min/mg) are based on the rate and extent of metabolism of the test compound as determined by the disappearance of the parent compound from the reaction mixture. These values may be scaled to predict hepatic metabolic clearance rate (CLh, mL/min/kg) and extraction ratio (ER, expressed as a ratio of the predicted hepatic metabolic clearance to hepatic blood flow in that species). In general, compounds with high predictedCLint or ER in vitro are considered to be at high risk for exposure-limiting metabolism in vivo.

[3] = Liver Microsomal Clearance Assay (mouse); type: in vitro ADME; conditions: extraction ratio, mouse liver microsomes, 1 μM compound
Method: as §1

p38α MAP Kinase = assay: A549 p38α MAP Kinase Bright-Glo Reporter Gene Assay; type: cell-based; conditions: Homo sapiens, IL-1 beta stimulated, IL-8 promoter luciferase reporter, read-out: A549 p38 RGA IC50
Method: A549 cells were stably-transfected with the IL-8 promoter driven reporter, pGL3-IL8-Luc. The cells were plated at 4×10^5/ml into 384-well solid white plates (40 ul/well, 5% CD-FBS, 1×P/S, DMEM) and were incubated overnight (18-20 hours) at 37° C. Test compounds were serially diluted in DMSO, then 50 nl of test solution was added to the incubation (final DMSO concentration of 0.1%). After incubating with test compound for 30 min, cells were stimulated with 1 ng/ml IL-1 beta (10 ul of 5 ng/ml solution per well). Bright-Glo (25 ul/well) was added to measure luciferase expression after 7-8 hours of stimulation.

SW620 cells = assay: SW620 Cell Viability Assay (Cell Titer Glo); type: cell-based; conditions: 10 to 0.002 μM, no MEK inhibitor
Method: The present invention also includes combinations of the BRaf inhibitors disclosed in this invention with other agents. In particular, the present invention provides for combinations with MEK1/2 inhibitors. FIG. 1 illustrates that the addition of a MEK small molecule inhibitor can reverse the induced ERK signaling, cell growth and transformation caused by a Raf small molecule inhibitor.
SW620 cells were seeded in 1640 RPMI+10% FBS at a density of 1500 cells per 96-well in black walled, clear bottom tissue culture treated plates. Test compounds were serially diluted in DMSO then added to the cells (final DMSO concentration of 0.1%) and incubated at 37° C. and 5% CO2 for 4 days. To measure cell viability, cell plates were brought to room temperature, culture media was removed, and 200 μl of Cell Titer-Glo reagent (Promega, kit components mixed as per the manufacturer's protocol then diluted 1:2 with growth media) was added to each well. Plates were shaken for 5 minutes, then incubated at room temperature for 5 minutes, and the luminescence was measured (Trilux, Perkin Elmer).

[4] = A-375, 48 h, A375-luc cells, 2 days, read-out: A375 CP IC50
[5] = A-375, as repeated in p38 table, read-out: A375 CP IC50

pIC50 [1, 4]	pIC50 [1, 5]	pIC50 ([1]; A-375, read-out: A375 IC50)	ER Human [2]	ER Mouse [3]	pIC50 (p38α MAP Kinase)	Structure (SMILES)	effect on cellular proliferation (negative inhibition in FIG. 1) (SW620 cells)
8.70	8.70	8.70	<0.21	0.48	5.66	COC(=O)N[C@@H](C)CNc1nccc(-c2cn(C(C)C)nc2-c2cc(Cl)cc(NS(C)(=O)=O)c2F)n1 [Compound 9, Methyl N-[(2S)-1-({4-[3-(5-chloro-2-fluoro-3-methanesulfonamidophenyl)-1-(propan-2-yl)-1H-pyrazol-4-yl]pyrimidin-2-yl}amino)propan-2-yl]carbamate]	induction in cellular proliferation
7.51	7.51				6.16	COC(=O)NC[C@H](C)Nc1nccc(-c2cn(C(C)C)nc2-c2cc(Cl)cc(NS(C)(=O)=O)c2F)n1 [Compound 32, Methyl N-[(2S)-2-({4-[3-(5-chloro-2-fluoro-3-methanesulfonamidophenyl)-1-(propan-2-yl)-1H-pyrazol-4-yl]pyrimidin-2-yl}amino)propyl]carbamate]	
7.12	7.12	7.12			4.77	CNc1nccc(-c2cn(C(C)C)nc2-c2cc(Cl)cc(NS(C)(=O)=O)c2F)n1 [Compound 29, N-(5-chloro-2-fluoro-3-{4-[2-(methylamino)pyrimidin-4-yl]-1-(propan-2-yl)-1H-pyrazol-3-yl}phenyl)methanesulfonamide]	
8.70			0.66	0.79		CCCS(=O)(=O)Nc1cc(Cl)cc(-c2nn(C(C)C)cc2-c2ccnc(NC[C@H](C)NC(=O)OC)n2)c1F [Compound 1, Methyl N-[(2S)-1-[(4-{3-[5-chloro-2-fluoro-3-(propane-1-sulfonamido)phenyl]-1-(propan-2-yl)-1H-pyrazol-4-yl]pyrimidin-2-yl)amino]propan-2-yl]carbamate]	
7.48			<0.31	0.40		COC(=O)N[C@@H](C)CNc1nccc(-c2cn(C(C)C)nc2-c2cccc(NS(C)(=O)=O)c2F)n1 [Compound 4, methyl N-[(2S)-1-({4-[3-(2-fluoro-3-methanesulfonamidophenyl)-1-(propan-2-yl)-1H-pyrazol-4-yl]pyrimidin-2-yl}amino)propan-2-yl]carbamate]	
